Results reported in US20240307351A1, “AGENT FOR ANTI-AGING OR FOR CELLULAR REJUVENATION” (TOHOKU UNIVERSITY, priority 2022, published 2024).

How the values were obtained:
[1] = tested on: NDUFS4 homozygous knockout mice (Ndufs4−/−mice); assay: HE staining of brown adipose tissue of Ndufs4−/− mice; format: in vivo, mouse; settings: 10 mg/day per kg, 50 days, compared with CMC administration group
Protocol: Compound #5 was administered to NDUFS4 homozygous knockout mice (Ndufs4−/−mice) (28 days old) at a dose of 10 mg/day per kg of mouse weight for 50 days ([Compound #5 administration group]).
(§1) In addition, CMC (carboxymethylcellulose) was administered to NDUFS4 homozygous knockout mice (Ndufs4−/−mice) at a dose of 10 mg/day per kg of mouse weight for 50 days ([CMC administration group; Control group]).
Since the NDUFS4 homozygous knockout mice are mice with abnormal mitochondrial function and the abnormal mitochondrial function is one of aging phenomena, the NDUFS4 homozygous knockout mice can be used as one type of aging model mice.

[2] = tested on: muscle cells of aged mice; assay: RNA-Seq, pathway and ChIP-Atlas analysis of muscle cells of aged mice; format: in vivo, mouse; settings: oral, 50 mg/kg/day, 2 months
Protocol: Water-suspended Compound #5 was orally administered to C57BL6 mice (92 weeks old) at a dose of 50 mg/kg/day per kg of mouse weight for 2 months ([MA5 addition group], n=5). After 2 months of oral administration, the mice were 101 weeks old.
In addition, water was orally administered to C57BL6 mice (92 weeks old) for 2 months ([Vehicle group], n=5). After 2 months of oral administration, the mice were 101 weeks old.
(§2) RNA sequencing (RNA-Seq) analysis was performed on the muscle cells of aged mice in [MA5 addition group] and [Vehicle group] to identify genes whose expression levels changed (increased or decreased) in [MA5 addition group] and [Vehicle group] compared to the muscle cells of young mice before administration.
(§3) Based on the names of genes whose expression levels increased or decreased in the aged mice of [MA5 addition group] as compared with the aged mice of [Vehicle group] in the RNA sequence (RNA-Seq) analysis, pathway analysis of genes whose expression levels varied in muscle cells of the aged mice of [MA5 addition group] was performed.
The results of the names of the genes whose expression levels increased or decreased in the aged mice of [MA5 addition group] as compared with the aged mice of [Vehicle group] in the RNA sequence (RNA-Seq) analysis were used to perform integrated analysis with ChIP-Atlas to investigate transcription factors possibly related to these genes.

[3] = tested on: α-Klotho gene-deficient mice; assay: Survival rate of α-Klotho gene-deficient mice (Kaplan-Meier); format: in vivo; settings: oral, 10 mg/kg mouse weight/day from 28 days old until death
Protocol: Water-suspended Compound #5 was orally administered to α-Klotho gene-deficient mice (28 days old) as a premature aging animal model at a dose of 10 mg/kg mouse weight/day, the progress was observed until death, and the survival rate was evaluated from a survival curve based on the Kaplan-Meier method (Klotho homo KO mouse administration group, n=9).
In addition, water was orally administered to α-Klotho gene-deficient mice (28 days old) until death (Klotho homo KO mouse non-administered group, n=9).

FABP4 Gene = assay: Quantitative PCR of FABP4 Gene in brown adipocytes of Ndufs4−/− mice; format: in vivo, mouse; settings: 10 mg/day per kg, 50 days, vs CMC administration group
Protocol: Compound #5 was administered to NDUFS4 homozygous knockout mice (Ndufs4−/−mice) (4 weeks old) at a dose of 10 mg/day per kg of mouse weight for 50 days ([Compound #5 administration group]).
as §1
Brown adipocytes were collected from the mice of [Compound #5 administration group] and [CMC administration group]. Total RNA was extracted from the brown adipocytes, and cDNA was prepared therefrom and used for measurement of mRNA expression level. The measurement was performed by a quantitative PCR method. The expression level of mRNA was determined with a relative ratio to β-actin used as an internal standard. As primers and probes, the following commercially available products (manufactured by Thermo Fisher Scientific Inc., and the like) were used. • Mouse Acts (actin beta, β-actin) Mm02619580_g1, Cat #4331182 • Mouse Ucp1 (uncoupling protein 1), Mm00494069_m1, Cat #4331182 • Mouse Pparg (PPARγ, peroxisome proliferator activated receptor gamma), Mm00440945_m1, Cat #4331182p • Mouse Fabp4 (fatty acid binding protein 4), Mm00445880_m1, Cat #4331182

[4] = Plasma metabolite analysis by CE-TOFMS in α-Klotho gene-deficient mice; format: in vivo; settings: oral, 10 mg/kg mouse weight/day, 28 to 60 days old
Protocol: Water-suspended Compound #5 was orally administered to α-Klotho gene-deficient mice (28 days old) at a dose of 10 mg/kg mouse weight/day until 60 days old (Klotho homo KO mouse administration group, n=2).
In addition, water was orally administered to wild-type mice (28 days old) and α-Klotho gene-deficient mice (28 days old) until 60 days old (n=2 for each of the wild-type non-administrated group and the Klotho homo KO mouse non-administrated group).
Plasma was prepared from each 60-day-old mouse, and the effect of administration of Compound #5 on plasma metabolites was subjected to target analysis (comprehensive analysis) by CE-TOFMS (manufactured by Human Metabolome Technologies, Inc.).

[5] = tested on: muscle cells of young mice; assay: RNA-Seq, pathway and ChIP-Atlas analysis of muscle cells of young mice; format: in vivo, mouse; settings: oral, 50 mg/kg/day, 2 months
Protocol: Water-suspended Compound #5 was orally administered to C57BL6 mice (12 weeks old) at a dose of 50 mg/kg/day per kg of mouse weight for 2 months ([MA5 addition group], n=5). After 2 months of oral administration, the mice were 20 weeks old.
In addition, water was orally administered to C57BL6 mice (12 weeks old) for 2 months ([Vehicle group], n=5). After 2 months of oral administration, the mice were 20 weeks old.
as §2, with “the young” for “aged”, “administration. The results are illustrated in FIG. 16.” for “administration.”
as §3, with “young” for “aged”, “in” for “in muscle cells of the aged mice of”, “performed. The results are illustrated in FIG. 17. […]” for “performed.”

SMILES: O=C(CC(C(=O)O)c1c[nH]c2ccccc12)c1ccc(F)cc1F (stereo not drawn) [Compound #5, 4-(2,4-difluorophenyl)-2-(1H-indole-3-yl)-4-oxo-butanoic acid]
- size of lipid droplets in brown adipose tissue [1]: decrease
- MAPK cascade (pathway analysis) [2]: inhibition
- insulin signaling pathway (pathway analysis) [2]: enhancement
- longevity regulating pathway (pathway analysis) [2]: enhancement
- transcription factors associated with genes whose expression was increased (ChIP-Atlas) ([2]; Table 1): FOXO1 known as longevity genes, KLF4, which is one of reprogramming factors necessary for the production of iPS cells, and KLF2 and KLF5
- expression level of Klf4 Gene ([2]; vs Vehicle group): significantly increased
- expression level of Myc Gene ([2]; vs Vehicle group): significantly increased
- expression level of Nanog Gene ([2]; vs Vehicle group): tended to increase
- expression level of Pou5f1 (Oct4) Gene ([2]; vs Vehicle group): tended to increase
- expression level of Sox2 Gene ([2]; vs Vehicle group): significantly increased
- survival rate [3]: significantly increased
- expression of FABP4 Gene (FABP4 Gene): higher
- spermidine in plasma [4]: increased
- expression levels of genes related to differentiation, development, and the like of muscles such as Tbx1 Gene [5]: increased
- transcription factors related to the genes whose expression increased (ChIP-Atlas) ([5]; Table 2): SUZ^12 and EZH2
